The test system of series [1] is HIV. In words: Antiviral assay, HIV-induced cytopathic effect in CEM cells (tetrazolium/formazan viability readout). The following applies: Human immunodeficiency virus 1, CCRF-CEM; for IC90: read-out: IC₉₀. It counts as cell-based. Here is the method:
(§1) The antiviral activity of the AZT prodrug was evaluated in the Retrovirus Research Laboratory at Southern Research Institute. The AZT prodrug (Structure 5) was tested against HIV in CEM cells in a standardized assay system. In this assay the CEM cells were grown in microtitre plates and incubated for 6 day with or without a HIV. The cells were incubated with prodrug or AZT at varying concentrations. After 6 days the percentage of viable cells was measured by employing a standardized assay based upon the conversion of a tetrazolium salt to a formazan chromaphore by viable cells. (T.Mossman; J.Immunol.Methods 65:55 (1983)) The production of the chromaphore was measured spectrophotometrically with a Molecular Devices Vmax plate reader at 570 nm. From the optical density data a computer program calculated the per cent reduction in viral cytopathic effect (CPE), the prodrugs cytotoxic effect, and IC₅₀ values.
The IC₅₀ value; defined as that concentration of drug inhibited the HIV induced CPE 50% was 24 nanamolar for the AZT prodrug. […] When the prodrug was added to the cell cultures 8 hours prior to infecting with HIV the IC₅₀ for the prodrug was 5 nanamolar. The IC9₉₀ for the prodrug was 10 nanamolar. The IC₅₀ for AZT under the same conditions was also 5 nanamolar. The IC₉₀ for AZT was 10 nanamolar. The data is summarized in the graph below for an experiment in which the prodrug or AZT were added 8 hours prior to the time of infection with the HIV. [formula] The graph below summarizes the results of an experiment in which the antiviral activity of the AZT prodrug was added 8 hours prior to infection or at the time of infection. [formula]
(In general: Cytopathic effects are the visible damage that an infection or toxin causes in cultured cells.)

The nature of series [2]: Cytotoxicity in uninfected CEM cells (tetrazolium/formazan viability readout). It counts as cell-based. Conditions: human, 6 days, read-out: TC₅₀ (concentration that resulted in a 50% reduction of cell viability in uninfected cells). The method, then:
as §1
The IC₅₀ value; defined as that concentration of drug inhibited the HIV induced CPE 50% was 24 nanamolar for the AZT prodrug. […] When the prodrug was added to the cell cultures 8 hours prior to infecting with HIV the IC₅₀ for the prodrug was 5 nanamolar. The IC9₉₀ for the prodrug was 10 nanamolar. The IC₅₀ for AZT under the same conditions was also 5 nanamolar. The IC₉₀ for AZT was 10 nanamolar. […]

Series [3] concerns the target T1, acetylcholinesterase (Gallus gallus, UniProt P36196).
T1 construct: tested for anticholinesterase acitivity in chicken brain homogenate and electric eel extract; from tissue; host or cells: chicken brain homogenate
T1 sequence (P36196 20-767): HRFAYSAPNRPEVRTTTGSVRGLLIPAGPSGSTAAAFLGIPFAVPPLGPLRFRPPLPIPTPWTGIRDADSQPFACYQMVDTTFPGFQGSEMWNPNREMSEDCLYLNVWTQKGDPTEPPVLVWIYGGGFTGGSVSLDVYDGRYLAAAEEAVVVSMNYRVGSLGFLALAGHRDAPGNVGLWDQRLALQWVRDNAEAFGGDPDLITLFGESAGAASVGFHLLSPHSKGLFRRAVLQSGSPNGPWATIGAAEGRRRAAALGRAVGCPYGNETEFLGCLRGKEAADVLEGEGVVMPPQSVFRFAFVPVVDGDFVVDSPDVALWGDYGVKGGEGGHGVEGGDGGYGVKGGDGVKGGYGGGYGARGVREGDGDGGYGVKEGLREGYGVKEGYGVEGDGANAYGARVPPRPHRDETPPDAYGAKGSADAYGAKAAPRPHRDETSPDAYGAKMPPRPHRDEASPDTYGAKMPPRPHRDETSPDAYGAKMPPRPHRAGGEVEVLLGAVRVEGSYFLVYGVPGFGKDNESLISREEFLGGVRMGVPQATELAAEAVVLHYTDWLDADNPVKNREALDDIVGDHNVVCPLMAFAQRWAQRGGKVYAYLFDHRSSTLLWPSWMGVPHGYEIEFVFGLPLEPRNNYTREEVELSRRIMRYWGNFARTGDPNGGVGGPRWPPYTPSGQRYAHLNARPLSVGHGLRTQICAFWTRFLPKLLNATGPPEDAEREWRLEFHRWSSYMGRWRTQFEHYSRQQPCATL
Put plainly: Acetylcholinesterase activity inhibition assay, chicken brain homogenate. The following applies: at 10⁻⁵ M. The series is classed as biochemical. Here is the method: (§2) The AZT prodrug was evaluated for anticholinesterase activity at the Laboratory of Neurotoxicology and Pharmacology at Duke University using a standard well established acetylcholinesterase activity inhibition assay. Elleman et. al.; Biochemical Pharmacology; 7:88 (1962) The prodrug was tested for anticholinesterase acitivity in chicken brain homogenate and electric eel extract.

For series [4], the target named is T2, acetylcholinesterase (Electrophorus electricus, UniProt O42275).
T2 construct: tested for anticholinesterase acitivity in chicken brain homogenate and electric eel extract; from tissue
T2 sequence (O42275 24-633): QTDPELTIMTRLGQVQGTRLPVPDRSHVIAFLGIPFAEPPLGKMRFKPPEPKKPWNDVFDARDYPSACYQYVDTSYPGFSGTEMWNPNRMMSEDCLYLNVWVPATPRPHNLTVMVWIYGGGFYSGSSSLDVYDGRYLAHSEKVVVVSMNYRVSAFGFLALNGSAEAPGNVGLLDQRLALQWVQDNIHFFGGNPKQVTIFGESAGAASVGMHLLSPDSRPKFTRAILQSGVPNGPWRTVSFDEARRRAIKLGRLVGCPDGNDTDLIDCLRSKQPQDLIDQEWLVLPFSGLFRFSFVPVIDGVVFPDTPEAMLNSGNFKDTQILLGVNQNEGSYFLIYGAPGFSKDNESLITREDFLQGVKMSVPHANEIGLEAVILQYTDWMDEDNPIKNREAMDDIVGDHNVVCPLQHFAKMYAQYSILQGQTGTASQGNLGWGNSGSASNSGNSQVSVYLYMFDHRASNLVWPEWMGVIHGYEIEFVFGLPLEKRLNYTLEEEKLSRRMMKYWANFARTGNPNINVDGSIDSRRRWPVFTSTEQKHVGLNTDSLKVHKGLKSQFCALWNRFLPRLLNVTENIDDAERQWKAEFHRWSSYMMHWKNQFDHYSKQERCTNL
Put plainly: Acetylcholinesterase activity inhibition assay, electric eel extract. The series is classed as biochemical. Conditions: at 10⁻⁵ M. The method, then: as §2

Series [5] can be described thus: Acute toxicity in mice, intraperitoneal. The series is classed as in vivo. The following applies: IP.
The conditions of series [6]: cited from earlier work.
Series [7] deals with HIV reverse transcriptase (Human immunodeficiency virus type 1 group M subtype B, UniProt P04585). The following applies: read-out: concentration at which HIV reverse transcriptase is inhibited by 50%; cited from earlier work.
Where [8] appears, read: added 8 hours prior to infecting with HIV, read-out: IC₅₀.
Where [9] appears, read: added 8 hours prior to infecting with HIV.

Molecules are shown by their SMILES. Read-outs that look alike come from different tables or passages of the source.

For the molecule `Cc1cn([C@H]2C[C@H](N=[N+]=[N-])[C@@H](CO)O2)c(=O)[nH]c1=O` [AZT, 3'azido-3'deoxythymidine, reference compound], in series [1] (setting [8]), the IC50 is 5 nM. Also, the IC90 in series [1] (setting [9]) worked out at 10 nM.
With `CCOC(=O)CC(OP(=O)(OC[C@H]1O[C@@H](n2cc(C)c(=O)[nH]c2=O)C[C@@H]1N=[N+]=[N-])OC(CC(=O)OCC)c1ccc(OC(C)=O)cc1)c1ccc(OC(C)=O)cc1` (stereo partly drawn) [AZT prodrug], the IC50 in series [1] (144 h, 6 days, drug not added before infection, read-out: IC₅₀ (concentration that inhibited the HIV induced CPE 50%)) was 24 nM; in series [1] (setting [8]), 5 nM. Also, the IC90 in series [1] (setting [9]) stood at 10 nM. In series [2], the CC50 at 144 h worked out at 7800 nM. For the same molecule, the “inhibition of acetylcholinesterase activity” value in series [3] and in series [4] was “No inhibition” in each case. For the same molecule, the acute toxicity result in series [5] (mice, 100 mg/kg as an emulsion in 5% Emulphor EL 620) is recorded as “no acute toxicity”; in series [5] (one mouse, 300 mg/kg, 24 hour period of observation), “without evident acute toxicity”.
On to `COc1cc(C=CC(C)=O)ccc1O` [methyl 4-hydroxy,3-methoxy-styryl ketone], for which, in series [6], the “oral LD₅₀” value was > 2 grams/kg.
As for `O=C(O)P(=O)(O)O` [Phosphonoformate], the IC50 in series [7] was < 2000 nM.

These data come from patent EP0533833B1, “PHOSPHOROUS PRODUGS” (priority 1990, dated 1991).
